These results are taken from patent publication US9011880B2, “Compounds and methods for treating cancer” (IGF Oncology, LLC, priority 2003, dated 2015).

The conditions of data set [1]: humans, cited from earlier work.
For data set [2], the system named is MCF-7 (human breast carcinoma). Put plainly: Cell proliferation response to insulin and IGF-1: MCF-7. In kind it is cell-based. The conditions noted are these: MCF-7, minimal medium, 1 ug/ml insulin or 100 ng/ml IGF-1, 1, 2 and 4 days; data not shown. The protocol:
(§1) The cell lines LNCAP, MCF-7, MDA-231, SCK, and HOP-92 were also tested to determine whether the cells increased their proliferation in the presence of insulin or IGF-1. Cells were plated in minimal medium with no addition (negative control), 1 ug/ml insulin, 100 ng/ml IGF-1, or 10% fetal calf serum (positive control), and cell density was monitored at 1, 2, and 4 days after plating. […] (Data not shown).

Data set [3] relates to MDA-231 (human breast carcinoma). Put plainly: Cell proliferation response to insulin and IGF-1: MDA-231. It counts as cell-based. As to conditions: MDA-231, minimal medium, 1 ug/ml insulin or 100 ng/ml IGF-1, 1, 2 and 4 days; data not shown. The protocol:
as §1

The subject of data set [4] is LNCAP (human prostate carcinoma). The data set is described as follows: Cell proliferation response to insulin and IGF-1: LNCAP. In kind it is cell-based. As to conditions: minimal medium, 1 ug/ml insulin or 100 ng/ml IGF-1, 1, 2 and 4 days, data not shown. The protocol: as §1
Data set [5] relates to SCK (mouse mammary carcinoma). The data set is described as follows: Cell proliferation response to insulin and IGF-1: SCK. In kind it is cell-based. The conditions noted are these: minimal medium, 1 ug/ml insulin or 100 ng/ml IGF-1, 1, 2 and 4 days, data not shown. Here is the method: as §1
A further data set concerns FSAII tumors. Put plainly: FSAII tumor growth in vivo in mice. Also on record: species or system mouse. Here is the method: FSAII testing. Six-week old female mice were injected subcutaneously in the thigh with 200,000 FSAII cells each in serum-free medium. Tumors were allowed to grow until they reached an average volume of 100 mm^3 (calculated as length×breadth^2). At that time, treatment was initiated. […] A fifth group of mice was untreated controls. Each group contained five mice. Mice were treated on days 0, 2, and 5. Tumor growth was measured every second day.

In the next data set the test system is LNCAP tumors. In kind it is in vivo, mouse. Here is the method: LNCAP testing. Eight-week old athymic male mice (nu/nu) were injected subcutaneously in the thigh with 1 million LNCAP cells in serum-free medium. Tumors were allowed to grow until they reached an average size of 100 mm^3. […] A fifth group of mice was untreated controls.
In a further data set the test system is type 1 IGF receptor. The conditions noted are these: cited from earlier work.
The mark [6] stands for this setting: high dose 60 μmoles/kg methotrexate, intraperitoneally, days 0, 2 and 5.
[7] abbreviates: low dose conjugate vs high dose methotrexate.

Where two headings read alike, the source gives them in different places.

With `O=P1(N(CCCl)CCCl)NCCCO1` (stereo not drawn) [cyclophosphamide], in data set [1], the maximum safe dosage entry is given as “approximately 5 millimoles per meter squared per 3 weeks” and the minimum effective dosage result was “approximately 3 millimoles per meter squared per 3 weeks”.

Regarding `CC(=O)O[C@@]12CO[C@@H]1C[C@H](O)[C@@]1(C)C(=O)[C@H](O)C3=C(C)[C@@H](OC(=O)[C@H](O)[C@@H](NC(=O)OC(C)(C)C)c4ccccc4)C[C@@](O)([C@@H](OC(=O)c4ccccc4)[C@H]21)C3(C)C` [docetaxel], the maximum safe dosage entry in data set [1] (cumulative per 3 weeks) is reported as “about 120 micromoles per meter squared per 3 weeks”. In data set [1] (lowest dosage usually used), the minimum effective dosage entry is on record as “about 70 micromoles per meter squared per 3 weeks”.

`COc1cccc2c1C(=O)c1c(O)c3c(c(O)c1C2=O)C[C@@](O)(C(=O)CO)C[C@@H]3O[C@H]1C[C@H](N)[C@H](O)[C@H](C)O1` [doxorubicin]: the maximum safe dosage result in data set [1] (cumulative per 3 weeks) was “approximately 130 micromoles per meter squared per 3 weeks”. The minimum effective dosage in data set [1] (lowest dosage usually used) is ~100 micromoles per meter squared per 3 weeks; in data set [1] (per 3 weeks) it was “about 60 mg/m^2”.

Consider `CC[C@]1(O)C[C@H]2CN(CCc3c([nH]c4ccccc34)[C@@](C(=O)OC)(c3cc4c(cc3OC)N(C=O)[C@H]3[C@@](O)(C(=O)OC)[C@H](OC(C)=O)[C@]5(CC)C=CCN6CC[C@]43[C@@H]65)C2)C1` [vincristine], for which the maximum safe dosage result in data set [1] (cumulative per 3 weeks) is “about 8 micromoles per meter squared per 3 weeks”. Further, the minimum effective dosage entry in data set [1] (lowest dosage usually used) is recorded as “about 3.25 micromoles per meter squared per 3 weeks”.

Consider “IGF-1: human insulin-like growth factor-1, SEQ ID NO:1”, for which the stimulation of proliferation entry in data set [2], in data set [3], in data set [4] and in data set [5] was “stimulated proliferation” each time.

“insulin-methotrexate conjugate: approximately 3 MTX attached to each insulin by direct amide bonds to the two alpha amino groups and one lysine side chain”: the “effect on FSAII tumor growth” value with FSAII tumors (setting [6]) is “appeared to very significantly slow tumor growth”; in the data set with FSAII tumors (low dose 15 μmoles/kg methotrexate, intraperitoneally, days 0, 2 and 5), “significantly slowed tumor growth”. The “toxicity (death of mice)” value in the data set with FSAII tumors (setting [6]) is recorded as “killed all five mice by one day following the third treatment”. For the same compound, the “activity against FSAII tumors in vivo relative to unconjugated methotrexate” value in the data set on FSAII tumors (setting [7]) was “at least 4 fold”. In the data set on LNCAP tumors (low dose 15 μmoles/kg methotrexate, days 0, 4, 8, 18, 22 and 26), the “effect on LNCAP tumor growth” value is reported as “appeared to slow tumor growth”. In addition, the “lower concentration at which effective against LNCAP tumors relative to unconjugated methotrexate” value in the data set with LNCAP tumors (setting [7]) was “at least 2.6 times”.

As to insulin: insulin, the stimulation of proliferation result in data set [2], in data set [3], in data set [4] and in data set [5] was “stimulated proliferation” throughout.

Regarding “long-R3-IGF-1: variant of IGF-1, SEQ ID NO:4, reduced binding affinity for soluble IGF binding proteins (GroPep)”, the “binding affinity for the type 1 IGF receptor compared to wild-type IGF-1” value in the data set on type 1 IGF receptor is “equal binding affinity”.
